Entries after “also recorded” stand apart in the source; their conditions may differ. Like-named read-outs stand apart in the source and are kept apart here.
What was measured:
[1] = Dobrez et al. 2004; cited from earlier work
renin [2] = assay: In vivo renin inhibition in CD-1 male mice; parameters: species or system mouse; settings: 1.5 and 3.0 μg/kg i.p. 3 times a week for three weeks
[3] = assay type: in vivo, rat
Protocol: It is clinically important to suppress elevated serum PTH levels in ESRD patients with established secondary hyperparathyroidism (SHPT) independent of hypercalcemia. Moreover, the 5/6 uremic rat model has effectively predicted the clinical profile of vitamin D analogues with respect to PTH and hypercalcemia. Thus, a direct comparison was conducted of paricalcitol (PARI) and doxercalciferol (DOX) in male Sprague Dawley rats subjected to 5/6 nephrectomy (surgical ablation) placed on 4 weeks of a high phosphorous diet (0.9% phos., 0.6% Ca) to establish SHPT. On Day 0, rats received vehicle (VEH; 5% ethanol, 95% propylene glycol; 0.4 ml/kg; IP) or drug (0.083, 0.17, 0.33, 0.66 mcg/kg; n=7-10/group) 3 times/week for 12 days. Blood samples were collected 24 hr post dose (Day 13). Day 0 values (mean±SEM) for: creatinine (VEH vs sham) were 1.02±0.05 vs 0.48±0.01 mg/dL; PTH, 1320±185 vs 178±11 pg/ml; blood ionized calcium (iCa; 1.26±0.01 vs 1.30±0.01 mmol/L); phosphorous (8.70±0.34 vs 7.36±0.09 mg/dL). In VEH, the ratio of Day 13/Day 0 iCa values declined to 0.93±0.02 vs 1.02±0.01 for sham; PTH and phosphorous tended to increase. […] PARI had no effect on iCa at 0.33 mcg/kg whereas the iCa ratio increased modestly to 1.05±0.02*# at 0.66 mcg/kg, less than that of DOX. The Day 13/Day 0 PTH ratios for DOX fell to 0.43±0.12, 0.26±0.06*, and 0.22±0.11* in response to 0.18, 0.33, 0.66 mcg/kg, respectively, while PARI decreased PTH ratios to 0.37±0.07*, 0.33±0.06*, 0.13±0.02*. Serum phosphorus was not affected in any treatment group. […] Thus, in the uremic rat with established SHPT, DOX suppresses serum PTH levels concomitant with dose-dependent elevations in ionized calcium greater than those caused by equal doses of. PARI. At these doses, PARI effectively reduces PTH without eliciting dose-dependent changes in ionized blood calcium. *=p<0.05 vs. VEH ANOVA; # p<0.05 unpaired t test DOX vs PARI

[4] = Vascular calcification in 5/6 nephrectomized uremic rats; assay type: in vivo, rat
Protocol: The 5/6 nephrectomized rats were obtained from Charles River Labs. (Wilmington, Mass.). Two weeks after nephrectomy, rats were put on a diet containing 0.9% phosphorous and 0.6% calcium for 4 weeks, followed by treatment with vehicle (5% ethanol+95% propylene glycol, 0.4 ml/kg), paricalcitol or doxercalciferol at 0.67 μg/kg, i.p., 3 times/week, for 2 weeks. Twenty-four hours after the last dosing, blood was collected via tail vein under ketamine anesthesia (50 mg/kg) and aorta collected for calcification studies. […] After the aortas were removed in a sterile manner from the rats, the aventitia was gently removed and each aorta was washed three times with medium. A segment of each aorta was processed for calcium and phoshphorus determination. A separate portion of each aorta was denuded, cut into 2-3-mm rings and placed in DMEM containing 0.2 μCi/ml ^45Ca for 3 days at 37° C. Afterwards, aortic rings were washed, dried, weighed, and then dissolved to determine radioactivity. […] Both paricalcitol and doxercalciferol at 0.67 μg/kg elevated iCa (˜25%) and suppressed PTH (>90%).

renin gene promoter = assay: Renin promoter-luciferase reporter assay; assay type: cell-based
From the text: Using an in vitro cell culture system, the activity of paricalcitol to suppress renin gene expression was examined using previously published techniques (1,25-Dihydroxyvitamin D3 is a negative endocrine regulator of the renin-angiotensin system, J. Clin. Invest., July 2002). […] This inhibitory effect is confirmed by renin promoter-luciferase reporter assays, which examine the activity of paricalcitol to suppress renin gene transcription.
In the present study, an investigation was made of the in vitro and in vivo activity of paricalcitol, a FDA-approved low calcemic vitamin D analog, to inhibit renin biosynthesis. To this end, As4.1-hVDR cells, a JG cell-like cell line stably transfected with human VDR, was treated with paricalcitol or 1,25(OH)2D3 at doses ranging from 10^−10 to 10^−7 M for 24 hours, and its renin-inhibiting activity was assessed by Northern blot analyses; the cells were also transfected with renin gene promoter-luciferase reporter plasmid, and luciferase activity was determined in the presence and absence of paricalcitol or 1,25(OH)2D3.

[5] = Renin mRNA expression in vitamin D-deficient rats; assay type: in vivo, rat; settings: 0.003-0.3 μg/kg i.p. three times per week, 2 weeks
Protocol: (§1) Weanling Sprague-Dawley male rats housed in an environment free of UV light were fed a 0.4% Ca, 0.3% P, vitamin D-deficient diet for 5 weeks, then switched to a 0.02% Ca, 0.5% P, vitamin D-deficient diet for 21 days. Rats were dosed with 0.003, 0.01, 0.03, and 0.3 μg/kg of paricalcitol, i.p., three times per week, for the final 2 weeks. A control group of animals was given vehicle only (5% ethanol/95% propylene glycol), and untreated, age-matched animals on normal diet (0.5% Ca, 0.4% P) served as normal peer control. Twenty-four hours after the last dose, the rats were anesthetized with ketamine (100 mg/kg), cardiac bled, killed by CO2, tissues collected for RNA extraction and real-time RT-PCR analysis, and serum taken for determination of calcium, phosphorus, and PTH.

renin [6] = assay: Renin mRNA expression in vitamin D-deficient rats; assay type: in vivo, rat; settings: 0.003-0.3 μg/kg i.p. three times per week, 2 weeks
Protocol: as §1

CYP24A1 = CYP24A1 mRNA expression in human CASMC (control); assay type: cell-based; settings: dose-dependent manner
human CASMC = assay: 45Ca uptake into primary culture of human coronary artery smooth muscle cells
Protocol: Primary cultured human CASMC were grown to >80% confluence and used within five passages. Cells were treated with drugs for 5 days in the appropriate medium, and then changed back to base medium (N1: DMEM containing 1.8 mM Ca^+2 and 0.9 mM PO−4) containing 0.2 μCi/ml ^45Ca for 24 hr. Afterwards, cells were washed with PBS three times and radioactivity measured by liquid scintillation.

PAI-1 = PAI-1 mRNA expression in human CASMC (control); assay type: cell-based; settings: dose-dependent manner
[7] = 0.67 μg/kg i.p. 3 times/week for 2 weeks

C[C@H](/C=C/[C@H](C)C(C)(C)O)[C@H]1CC[C@H]2/C(=C/C=C3C[C@@H](O)C[C@H](O)C3)CCC[C@]12C [paricalcitol]
hospitalizations related to cardiovascular events and non-infectious inflammations compared with calcitriol [1]: fewer hospitalizations | body weight (renin [2]): no effect | levels of blood ionized calcium (renin [2]): only slightly increased | Day 13/Day 0 PTH ratio ([3]; 0.18 mcg/kg IP 3 times/week for 12 days): 0.37±0.07 | Day 13/Day 0 PTH ratio ([3]; 0.33 mcg/kg IP 3 times/week for 12 days): 0.33±0.06 | Day 13/Day 0 PTH ratio ([3]; 0.66 mcg/kg IP 3 times/week for 12 days): 0.13±0.02 | elevation of iCa ([4]; 0.67 μg/kg): ~25% | Ca content in aorta compared to vehicle [4, 7]: 1.6 fold | phosphorus content in aorta compared to vehicle [4, 7]: no significant difference | 45Ca uptake in aorta rings compared to vehicle ([4]; 0.67 μg/kg i.p. 3 times/week for 2 weeks, rings 3 days in 45Ca): no significant difference | potency in suppressing renin gene promoter activity relative to calcitriol / 1,25(OH)2D3 (renin gene promoter): comparable to that of 1,25(OH)2D3; also recorded: at least as potent as calcitriol | effect on renin gene transcription (renin gene promoter; As4.1-hVDR cells): suppresses | calcium [5]: did not result in a significant change | serum PTH [5]: reduced serum PTH dose-dependently | renal renin mRNA expression (renin [6]): normalized | CYP24A1 mRNA expression (CYP24A1): stimulated | effect on 45Ca uptake (human CASMC; 100 nM, cells in N1 medium or different doses of P1 medium (20-60%)): did not show a significant effect | effect on 45Ca uptake (human CASMC; 1-100 nM, cells in N1 or 60% N1/40% P1 media, 5 days): no significant effects | PAI-1 mRNA expression (PAI-1): suppressed

Source: patent publication US20060171983A1, “Use of Vitamin D receptor activators or Vitamin D analogs to treat cardiovascular disease” (priority 2003, published 2006)
